Reference: patent US11208412B2 (DAEGU-GYEONGBUK MEDICAL INNOVATION FOUNDATION, priority 2017, dated 2021)

Key:
Assay in all cases: Kinase selectivity, DiscoverX scanMAX Kinase assay panel (% control)
Assay type in all cases: binding
[1] = target: T1, kinases of the scanMAX Kinase assay panel (Homo sapiens, UniProt P46734); conditions: MEK3; 1 uM
T1 construct: purchased DiscoverX Co. (contract measurement) scanMAX Kinase assay panel
T1 sequence (P46734 1-347): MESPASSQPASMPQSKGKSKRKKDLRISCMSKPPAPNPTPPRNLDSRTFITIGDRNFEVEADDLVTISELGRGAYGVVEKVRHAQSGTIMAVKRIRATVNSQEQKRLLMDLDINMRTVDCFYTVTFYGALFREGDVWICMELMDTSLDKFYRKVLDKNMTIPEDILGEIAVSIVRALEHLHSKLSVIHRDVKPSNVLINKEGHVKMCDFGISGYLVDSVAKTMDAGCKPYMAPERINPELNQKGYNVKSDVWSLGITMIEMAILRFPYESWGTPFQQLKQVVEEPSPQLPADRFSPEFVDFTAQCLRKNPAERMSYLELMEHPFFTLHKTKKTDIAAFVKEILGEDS
Method in brief: (§1)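 Percent of control computed as (compound − positive control)/(negative control − positive control) × 100, DMSO defining 100% and positive control 0%. Each panel kinase exposed to 1 uM compound; values under 35% taken to mean the compound acts on that kinase.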

[2] = target: T2, kinases of the scanMAX Kinase assay panel (Homo sapiens, UniProt Q9H3Y6); conditions: kinase SRMS; 1 uM in DMSO
T2 construct: purchased DiscoverX Co. (contract measurement) scanMAX Kinase assay panel
Method in brief: as §1

[3] = target: T3, kinases of the scanMAX Kinase assay panel (Homo sapiens, UniProt O14578); conditions: CIT; 1 uM
T3 construct: purchased DiscoverX Co. (contract measurement) scanMAX Kinase assay panel
Method in brief: as §1

[4] = target: T4, kinases of the scanMAX Kinase assay panel (Homo sapiens, UniProt Q13627); conditions: DYRK1A; 1 uM
T4 construct: purchased DiscoverX Co. (contract measurement) scanMAX Kinase assay panel
Method in brief: as §1

[5] = target: T5, kinases of the scanMAX Kinase assay panel (Homo sapiens, UniProt Q86UX6); conditions: kinase YANK3; 1 uM in DMSO
T5 construct: purchased DiscoverX Co. (contract measurement) scanMAX Kinase assay panel
Method in brief: as §1

[6] = target: T6, kinases of the scanMAX Kinase assay panel (Homo sapiens, UniProt Q9BUB5); conditions: MKNK1; 1 uM
T6 construct: purchased DiscoverX Co. (contract measurement) scanMAX Kinase assay panel
Method in brief: as §1

[7] = target: T7, kinases of the scanMAX Kinase assay panel (Homo sapiens, UniProt Q02779); conditions: MLK2; 1 uM
T7 construct: purchased DiscoverX Co. (contract measurement) scanMAX Kinase assay panel
Method in brief: as §1

[8] = target: T8, kinases of the scanMAX Kinase assay panel (Homo sapiens, UniProt Q99683); conditions: ASK1; 1 uM
T8 construct: purchased DiscoverX Co. (contract measurement) scanMAX Kinase assay panel
T8 sequence (Q99683 1-1374): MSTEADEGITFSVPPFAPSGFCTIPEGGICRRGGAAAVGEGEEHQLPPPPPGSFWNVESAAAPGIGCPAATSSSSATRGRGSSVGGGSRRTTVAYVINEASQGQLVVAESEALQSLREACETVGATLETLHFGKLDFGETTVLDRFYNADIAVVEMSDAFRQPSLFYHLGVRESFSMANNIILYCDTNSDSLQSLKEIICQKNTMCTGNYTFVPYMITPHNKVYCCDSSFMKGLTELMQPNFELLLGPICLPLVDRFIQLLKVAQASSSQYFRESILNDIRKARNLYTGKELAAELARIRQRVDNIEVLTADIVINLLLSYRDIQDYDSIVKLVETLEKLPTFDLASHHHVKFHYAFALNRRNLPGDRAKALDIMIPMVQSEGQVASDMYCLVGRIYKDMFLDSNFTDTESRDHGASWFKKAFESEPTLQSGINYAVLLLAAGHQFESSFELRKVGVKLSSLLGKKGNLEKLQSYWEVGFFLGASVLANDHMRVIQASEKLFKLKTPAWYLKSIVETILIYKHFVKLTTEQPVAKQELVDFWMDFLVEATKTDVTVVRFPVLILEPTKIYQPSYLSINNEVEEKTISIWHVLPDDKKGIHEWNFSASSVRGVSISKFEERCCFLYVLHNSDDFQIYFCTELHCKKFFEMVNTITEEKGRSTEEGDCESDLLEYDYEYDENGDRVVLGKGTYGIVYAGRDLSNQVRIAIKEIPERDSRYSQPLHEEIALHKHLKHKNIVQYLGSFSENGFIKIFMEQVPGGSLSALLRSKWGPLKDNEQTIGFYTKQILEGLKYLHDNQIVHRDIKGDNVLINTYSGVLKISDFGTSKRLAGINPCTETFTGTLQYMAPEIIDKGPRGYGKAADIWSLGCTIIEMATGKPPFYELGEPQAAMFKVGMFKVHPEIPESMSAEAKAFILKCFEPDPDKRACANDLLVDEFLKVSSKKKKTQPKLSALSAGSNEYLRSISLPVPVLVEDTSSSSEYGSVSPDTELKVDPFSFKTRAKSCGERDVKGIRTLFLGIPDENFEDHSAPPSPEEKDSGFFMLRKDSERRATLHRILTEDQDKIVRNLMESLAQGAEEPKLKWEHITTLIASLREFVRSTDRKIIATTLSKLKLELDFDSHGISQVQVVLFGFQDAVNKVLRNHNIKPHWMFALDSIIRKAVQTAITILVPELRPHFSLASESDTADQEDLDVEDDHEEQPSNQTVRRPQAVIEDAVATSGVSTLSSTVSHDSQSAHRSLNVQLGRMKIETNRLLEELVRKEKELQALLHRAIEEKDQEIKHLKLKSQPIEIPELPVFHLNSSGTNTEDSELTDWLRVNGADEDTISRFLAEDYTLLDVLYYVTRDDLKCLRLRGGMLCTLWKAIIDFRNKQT
Method in brief: as §1

T7 sequence (Q02779 whole entry): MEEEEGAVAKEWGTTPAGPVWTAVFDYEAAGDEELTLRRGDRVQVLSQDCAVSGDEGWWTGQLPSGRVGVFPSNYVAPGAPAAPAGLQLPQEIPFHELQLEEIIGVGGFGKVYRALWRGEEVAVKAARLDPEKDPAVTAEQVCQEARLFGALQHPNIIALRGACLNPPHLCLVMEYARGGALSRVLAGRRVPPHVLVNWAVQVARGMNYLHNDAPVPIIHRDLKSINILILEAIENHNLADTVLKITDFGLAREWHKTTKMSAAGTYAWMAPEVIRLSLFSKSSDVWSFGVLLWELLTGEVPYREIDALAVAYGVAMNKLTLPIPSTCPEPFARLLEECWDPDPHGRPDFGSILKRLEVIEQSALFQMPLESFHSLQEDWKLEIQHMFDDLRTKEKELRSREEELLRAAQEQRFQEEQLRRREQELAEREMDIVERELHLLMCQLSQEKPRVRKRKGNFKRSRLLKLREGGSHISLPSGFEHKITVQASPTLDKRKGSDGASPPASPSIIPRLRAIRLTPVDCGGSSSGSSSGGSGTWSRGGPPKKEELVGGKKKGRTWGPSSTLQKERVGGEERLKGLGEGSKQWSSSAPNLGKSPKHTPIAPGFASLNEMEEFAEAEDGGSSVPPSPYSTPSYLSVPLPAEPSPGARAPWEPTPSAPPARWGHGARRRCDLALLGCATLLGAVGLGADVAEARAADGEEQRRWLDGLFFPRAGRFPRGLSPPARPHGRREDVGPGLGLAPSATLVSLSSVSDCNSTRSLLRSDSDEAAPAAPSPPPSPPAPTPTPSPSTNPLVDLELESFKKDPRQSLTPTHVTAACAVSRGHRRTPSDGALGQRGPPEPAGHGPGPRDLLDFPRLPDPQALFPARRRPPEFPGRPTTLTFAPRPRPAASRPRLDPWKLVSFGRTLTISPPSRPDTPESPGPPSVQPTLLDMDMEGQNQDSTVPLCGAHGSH
T6 sequence (Q9BUB5 whole entry): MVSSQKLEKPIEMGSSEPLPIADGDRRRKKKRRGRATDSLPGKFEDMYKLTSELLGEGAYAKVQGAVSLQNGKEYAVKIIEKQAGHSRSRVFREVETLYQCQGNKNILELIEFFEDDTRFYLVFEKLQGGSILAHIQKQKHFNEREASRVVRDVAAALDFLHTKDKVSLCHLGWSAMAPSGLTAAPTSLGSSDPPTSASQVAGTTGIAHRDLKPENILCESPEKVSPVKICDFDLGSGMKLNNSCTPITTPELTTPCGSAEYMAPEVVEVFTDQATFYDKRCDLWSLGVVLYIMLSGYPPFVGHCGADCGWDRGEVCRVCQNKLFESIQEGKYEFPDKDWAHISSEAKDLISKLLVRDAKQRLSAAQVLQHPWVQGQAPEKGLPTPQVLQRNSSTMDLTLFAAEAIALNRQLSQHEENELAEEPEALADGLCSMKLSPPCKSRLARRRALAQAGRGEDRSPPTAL
T2 sequence (Q9H3Y6 whole entry): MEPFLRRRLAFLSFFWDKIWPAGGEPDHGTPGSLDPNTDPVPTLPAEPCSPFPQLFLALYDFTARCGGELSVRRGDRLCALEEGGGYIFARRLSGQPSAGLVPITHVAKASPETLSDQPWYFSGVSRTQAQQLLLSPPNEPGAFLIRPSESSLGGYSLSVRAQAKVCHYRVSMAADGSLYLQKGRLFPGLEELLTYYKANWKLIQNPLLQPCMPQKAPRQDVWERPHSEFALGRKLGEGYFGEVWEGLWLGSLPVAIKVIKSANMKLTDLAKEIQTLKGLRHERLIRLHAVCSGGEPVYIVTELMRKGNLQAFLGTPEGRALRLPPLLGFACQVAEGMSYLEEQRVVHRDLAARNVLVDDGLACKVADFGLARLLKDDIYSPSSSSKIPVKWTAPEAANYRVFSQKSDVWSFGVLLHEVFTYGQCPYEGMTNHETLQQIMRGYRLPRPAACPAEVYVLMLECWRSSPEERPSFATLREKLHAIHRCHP
T3 sequence (O14578 whole entry): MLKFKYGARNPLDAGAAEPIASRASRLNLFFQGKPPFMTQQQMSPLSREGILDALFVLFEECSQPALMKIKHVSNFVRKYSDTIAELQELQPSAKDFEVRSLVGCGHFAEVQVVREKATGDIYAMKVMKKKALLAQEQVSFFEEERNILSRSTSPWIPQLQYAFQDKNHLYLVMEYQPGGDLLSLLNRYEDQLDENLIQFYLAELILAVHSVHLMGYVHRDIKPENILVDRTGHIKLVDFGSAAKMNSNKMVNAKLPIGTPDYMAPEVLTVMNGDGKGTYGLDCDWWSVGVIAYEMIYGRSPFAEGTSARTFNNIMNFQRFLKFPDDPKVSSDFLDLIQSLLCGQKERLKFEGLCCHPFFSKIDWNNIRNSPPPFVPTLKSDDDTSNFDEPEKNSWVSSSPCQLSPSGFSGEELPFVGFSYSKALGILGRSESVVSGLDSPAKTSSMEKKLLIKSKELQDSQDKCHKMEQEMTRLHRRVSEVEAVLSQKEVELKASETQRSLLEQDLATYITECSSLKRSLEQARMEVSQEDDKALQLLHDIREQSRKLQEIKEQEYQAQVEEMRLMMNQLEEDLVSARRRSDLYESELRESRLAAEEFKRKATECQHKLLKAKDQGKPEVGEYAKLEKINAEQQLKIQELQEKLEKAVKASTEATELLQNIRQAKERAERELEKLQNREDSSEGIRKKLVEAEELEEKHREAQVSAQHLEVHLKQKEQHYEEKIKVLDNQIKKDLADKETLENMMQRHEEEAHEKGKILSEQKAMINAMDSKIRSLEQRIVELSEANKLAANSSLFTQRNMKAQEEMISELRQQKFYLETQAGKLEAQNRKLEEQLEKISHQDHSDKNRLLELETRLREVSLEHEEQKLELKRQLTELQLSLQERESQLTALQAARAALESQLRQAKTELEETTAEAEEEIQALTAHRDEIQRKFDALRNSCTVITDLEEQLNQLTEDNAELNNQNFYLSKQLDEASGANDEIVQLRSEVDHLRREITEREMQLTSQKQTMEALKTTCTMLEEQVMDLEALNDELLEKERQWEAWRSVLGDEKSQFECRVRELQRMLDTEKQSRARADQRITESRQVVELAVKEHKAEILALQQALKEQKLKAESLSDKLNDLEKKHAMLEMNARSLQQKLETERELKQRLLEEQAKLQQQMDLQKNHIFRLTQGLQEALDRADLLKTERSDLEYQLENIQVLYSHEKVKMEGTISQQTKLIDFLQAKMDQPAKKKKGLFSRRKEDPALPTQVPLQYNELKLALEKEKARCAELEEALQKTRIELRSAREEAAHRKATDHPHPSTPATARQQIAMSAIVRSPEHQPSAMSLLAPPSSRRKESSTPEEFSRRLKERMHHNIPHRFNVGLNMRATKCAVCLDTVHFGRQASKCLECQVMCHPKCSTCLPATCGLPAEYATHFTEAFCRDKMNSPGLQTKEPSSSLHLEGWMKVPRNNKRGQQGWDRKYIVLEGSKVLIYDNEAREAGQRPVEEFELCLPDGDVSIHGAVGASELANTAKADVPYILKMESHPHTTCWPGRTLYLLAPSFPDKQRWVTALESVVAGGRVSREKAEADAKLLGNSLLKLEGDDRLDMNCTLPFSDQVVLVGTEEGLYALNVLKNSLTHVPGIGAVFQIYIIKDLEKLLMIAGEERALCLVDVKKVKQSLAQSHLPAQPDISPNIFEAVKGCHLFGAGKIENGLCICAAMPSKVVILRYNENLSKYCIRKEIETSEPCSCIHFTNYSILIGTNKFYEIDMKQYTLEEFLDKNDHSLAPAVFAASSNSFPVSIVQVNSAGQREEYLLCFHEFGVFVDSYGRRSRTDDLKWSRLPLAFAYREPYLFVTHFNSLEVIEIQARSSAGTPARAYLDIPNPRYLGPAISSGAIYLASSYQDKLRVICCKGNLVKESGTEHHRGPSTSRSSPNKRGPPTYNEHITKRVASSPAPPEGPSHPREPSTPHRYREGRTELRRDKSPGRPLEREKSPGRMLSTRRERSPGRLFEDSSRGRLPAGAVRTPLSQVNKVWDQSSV
T5 sequence (Q86UX6 whole entry): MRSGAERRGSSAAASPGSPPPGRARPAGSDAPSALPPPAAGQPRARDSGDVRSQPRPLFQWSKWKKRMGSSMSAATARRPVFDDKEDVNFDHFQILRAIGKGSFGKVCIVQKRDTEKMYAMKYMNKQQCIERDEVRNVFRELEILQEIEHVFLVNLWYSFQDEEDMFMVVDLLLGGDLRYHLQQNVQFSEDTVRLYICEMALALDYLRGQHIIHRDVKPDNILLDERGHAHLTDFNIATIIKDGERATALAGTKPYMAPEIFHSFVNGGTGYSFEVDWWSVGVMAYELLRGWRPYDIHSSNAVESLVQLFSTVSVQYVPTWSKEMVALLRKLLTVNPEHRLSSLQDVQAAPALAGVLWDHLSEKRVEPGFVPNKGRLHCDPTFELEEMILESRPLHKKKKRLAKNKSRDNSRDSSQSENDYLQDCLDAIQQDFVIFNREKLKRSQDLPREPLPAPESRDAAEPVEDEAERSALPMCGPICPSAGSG

Structure (SMILES)	remaining binding at 1 µM [1] [%]	remaining binding at 1 µM [2] [%]	remaining binding at 1 µM [3] [%]	remaining binding at 1 µM [4] [%]	remaining binding at 1 µM [5] [%]	remaining binding at 1 µM [6] [%]	remaining binding at 1 µM [7] [%]	remaining binding at 1 µM [8] [%]
CNc1nc(Nc2ccc(C(=O)N3CCOCC3)cc2OC)nc2[nH]cc(C#N)c12 [Example 1, 2-((2-methoxy-4-(morpholine-4-carbonyl)phenyl)amino)-4-(methylamino)-7H-pyrrolo[2,3-d]pyrimidine-5-carbonitrile]	4.3	69	86	4.1	100	62	90	57
CC1(Nc2nc(Nc3cnn([C@H]4CCN(C5COC5)C[C@@H]4F)c3Cl)nc3[nH]cc(C#N)c23)CC1 [Example 52, 2-((5-chloro-1-((3S,4S)-3-fluoro-1-(oxetane-3-yl)piperidine-4-yl)-1H-pyrazole-4-yl)amino)((1-methylcyclopropyl)amino)-7H-pyrrolo[2,3-d]pyrimidine-5-carbonitrile]	0.8	41	76	0.15	100	100	4.4	1.8
CCNc1nc(Nc2ccc(C(=O)N3CCC(N4CCOCC4)CC3)cc2OC)nc2[nH]cc(C(F)(F)F)c12 [Example 104, (4-((4-(ethylamino)-5-(trifluoromethyl)-7H-pyrrolo[2,3-d]pyrimidine-2-yl)amino)-3-methoxyphenyl)(4-morpholinopiperidine-1-yl)methanone]	12	66	100	0.05	65	100	96	82
